# pIC50: −log10 of the molar value.
# Columns and labels:
# [1] = tested on: primary R5 HIV 1 clinical isolates; assay: Inhibition of viral replication in human PBMCs infected with primary R5 HIV 1 clinical isolates; format: cell-based; settings: for pIC50: Human immunodeficiency virus 1, PBMC, human PBMCs infected with primary R5 HIV 1 clinical isolates, read-out: median IC50, inhibition of viral replication
# Description: This assay uses primary peripheral blood mononuclear cells or the stable U87-CCR5 cell line to determine the effect of anti-CCR5 compounds to block infection of primary HIV-1 strains. The primary lymphocytes are purified from normal healthy donors and stimulated in vitro with PHA and IL-2 three days prior to infection. Using a 96-well plate format, cells are pretreated with drug for 1 hour at 37° C. and subsequently infected with an M-tropic HIV-1 isolates. Following infection, the cells are washed to remove residual inoculum and cultured in the presence of compound for 4 days. Culture supernatants are harvested and viral replication measured by determination of viral p24 antigen concentration.
# [2] = Human rising single dose study: metabolite profiling of plasma and urine by LC-MS/MS after oral compound of formula A; format: in vivo
# Description: (M5a/M5b/M5c/M5d are potential rotamers of the compound of Formula I)
# In a human rising single dose study, plasma levels of the compound of formula I relative to the compound of formula A were assessed in blood samples drawn at 2, 8, and 24 hr following oral administration of the compound of formula A. An in-house metabolite profiling method using LC-MS/MS detection was employed for this assessment. Based on this qualitative assessment of the compound of formula I in human plasma, the concentrations of the compound of formula I are projected to be up to 3-fold higher than the compound of formula A in human plasma (see FIG. 5). This is considered to be a surprising and unexpected result.
Structure (SMILES),pIC50 [1],"in vitro potency relative to the compound of formula A ([1]; human PBMCs, primary R5 HIV 1 isolates, ratio of median IC50 values)","metabolite status in human urine ([2]; 0-24 hr urine, single oral 50 mg compound of Formula A, healthy male volunteers)",metabolite status in clinical samples ([2]; first-in-man studies after administration of compound of formula A),"plasma concentration relative to the compound of formula A ([2]; human plasma, samples at 2, 8 and 24 hr after oral compound of formula A, projected from qualitative assessment)","metabolite status in human plasma ([2]; plasma 2 hr, single oral 50 mg compound of Formula A, healthy male volunteers)",susceptibility to further metabolism ([2]; stated as consequence of being a major metabolite)
Cc1nc[n+]([O-])c(C)c1C(=O)N1CCC(C)(N2CCN([C@@H](c3cccc(F)c3)C3CCN(S(=O)(=O)C4CC4)CC3)[C@@H](C)C2)CC1 [compound of formula I],8.10,approximately ⅛,significant metabolite,major metabolite,up to 3 fold,significant metabolite,less susceptible to further rapid metabolism
"COC[C@@H](c1ccc(C(F)(F)F)cc1)N1CCN(C2(C)CCN(C(=O)c3c(C)ncnc3C)CC2)C[C@@H]1C [SCH-417690, reference compound]",8.12,–,–,–,–,–,–
"Cc1ncnc(C)c1C(=O)N1CCC(C)(N2CCN([C@@H](c3cccc(F)c3)C3CCN(S(=O)(=O)C4CC4)CC3)[C@@H](C)C2)CC1 [compound of formula A, reference compound]",9.00,–,–,–,–,–,–
